Patent US10448639B2, “Fungicidal pyrazoles” (FMC CORPORATION, priority 2009, dated 2019)

Legend:
[1] = tested on: Puccinia recondita f. sp. tritici; assay: Test I: wheat leaf rust, preventive spray on wheat seedlings, visual disease rating; details: wheat leaf rust, preventive; 100 = 100% disease control, 0 = no control relative to controls
Septoria nodorum = assay: Test F: Septoria glume blotch, preventive spray on wheat seedlings, visual disease rating; details: Septoria glume blotch; 100 = 100% disease control, 0 = no control relative to controls
From the text: (§1) General protocol for preparing test suspensions for Tests A-J: the test compounds were first dissolved in acetone in an amount equal to 3% of the final volume and then suspended at the desired concentration (in ppm) in acetone and purified water (50/50 mix by volume) containing 250 ppm of the surfactant Trem® 014 (polyhydric alcohol esters). The resulting test suspensions were then used in Tests A-J. Spraying a 200 ppm test suspension to the point of run-off on the test plants was the equivalent of a rate of 500 g/ha. Unless otherwise indicated, the rating values indicate a 200 ppm test suspension was used. (An asterisk “*” next to the rating value indicates a 40 ppm test suspension was used.)
The test suspension was sprayed to the point of run-off on wheat seedlings. The following day the seedlings were inoculated with a spore suspension of Septoria nodorum (the causal agent of Septoria glume blotch) and incubated in a saturated atmosphere at 24° C. for 48 h, and then moved to a growth chamber at 20° C. for 6 days, after which time visual disease ratings were made.

Alternaria solani = assay: Test C: tomato early blight, preventive spray on tomato seedlings, visual disease rating; details: tomato early blight; 100 = 100% disease control, 0 = no control relative to controls
[2] = tested on: Puccinia recondita f. sp. tritici; assay: Test H: wheat leaf rust, curative spray on inoculated wheat seedlings, visual disease rating; details: wheat leaf rust, curative; 100 = 100% disease control, 0 = no control relative to controls
[3] = tested on: Erysiphe graminis f sp. tritici; assay: Test J: wheat powdery mildew, preventive spray on wheat seedlings, visual disease rating; details: wheat powdery mildew; 100 = 100% disease control, 0 = no control relative to controls
From the text: as §1
The test suspension was sprayed to the point of run-off on wheat seedlings. The following day the seedlings were inoculated with a spore dust of Erysiphe graminis f sp. tritici, (the causal agent of wheat powdery mildew) and incubated in a growth chamber at 20° C. for 8 days, after which time visual disease ratings were made.

Septoria tritici = assay: Test G: wheat leaf blotch, preventive spray on wheat seedlings, visual disease rating; details: wheat leaf blotch; 100 = 100% disease control, 0 = no control relative to controls
Botrytis cinerea = assay: Test B: tomato Botrytis, preventive spray on tomato seedlings, visual disease rating; details: tomato Botrytis; 100 = 100% disease control, 0 = no control relative to controls
From the text: as §1
The test suspension was sprayed to the point of run-off on tomato seedlings. The following day the seedlings were inoculated with a spore suspension of Botrytis cinerea (the causal agent of tomato Botrytis) and incubated in saturated atmosphere at 20° C. for 48 h, and then moved to a growth chamber at 24° C. for 3 additional days, after which time visual disease ratings were made.

## COc1cc(F)c(-c2c(C)nn(C)c2Oc2ccc(Cl)c(OC)c2)c(F)c1 [compound 211]
[1]
  Test I rating (% disease control): 17%
Septoria nodorum
  Test F rating (% disease control): 0%
Alternaria solani
  Test C rating (% disease control): 0%
[2]
  Test H rating (% disease control): 0%
[3]
  Test J rating (% disease control): 96%
Septoria tritici
  Test G rating (% disease control): 99%
Botrytis cinerea
  Test B rating (% disease control): 77%

## COc1cccc(Oc2c(-c3c(F)cc(F)cc3F)c(C)nn2C)c1 [compound 213]
[1]
  Test I rating (% disease control): 96%
Septoria nodorum
  Test F rating (% disease control): 0%
Alternaria solani
  Test C rating (% disease control): 30%
[2]
  Test H rating (% disease control): 94%
[3]
  Test J rating (% disease control): 100%
Septoria tritici
  Test G rating (% disease control): 85%
Botrytis cinerea
  Test B rating (% disease control): 97%

## Cc1nn(C)c(Nc2cccc(F)c2F)c1-c1ccc(F)cc1F [compound 214]
[1]
  Test I rating (% disease control): 99%
Septoria nodorum
  Test F rating (% disease control): 0%
Alternaria solani
  Test C rating (% disease control): 51%
[2]
  Test H rating (% disease control): 9%
[3]
  Test J rating (% disease control): 100%
Septoria tritici
  Test G rating (% disease control): 100%
Botrytis cinerea
  Test B rating (% disease control): 98%

## COc1ccc(Cl)c(Nc2c(-c3c(F)cccc3F)c(C)nn2C)c1 [compound 215]
[1]
  Test I rating (% disease control): 94%
Septoria nodorum
  Test F rating (% disease control): 0%
Alternaria solani
  Test C rating (% disease control): 0%
[2]
  Test H rating (% disease control): 0%
[3]
  Test J rating (% disease control): 99%
Septoria tritici
  Test G rating (% disease control): 98%
Botrytis cinerea
  Test B rating (% disease control): 89%

## COc1ccc(F)c(Nc2c(-c3c(F)cccc3F)c(C)nn2C)c1 [compound 216]
[1]
  Test I rating (% disease control): 26%
Septoria nodorum
  Test F rating (% disease control): 0%
Alternaria solani
  Test C rating (% disease control): 0%
[2]
  Test H rating (% disease control): 0%
[3]
  Test J rating (% disease control): 99%
Septoria tritici
  Test G rating (% disease control): 76%
Botrytis cinerea
  Test B rating (% disease control): 96%

## COc1cc(Oc2c(-c3c(F)cc(F)cc3F)c(C)nn2C)ccc1C [compound 217]
[1]
  Test I rating (% disease control): 79%
Septoria nodorum
  Test F rating (% disease control): 0%
Alternaria solani
  Test C rating (% disease control): 0%
[2]
  Test H rating (% disease control): 40%
[3]
  Test J rating (% disease control): 99%
Septoria tritici
  Test G rating (% disease control): 83%
Botrytis cinerea
  Test B rating (% disease control): 75%

## COc1cc(F)c(-c2c(C)nn(C)c2Oc2ccc(Cl)c(C#N)c2)c(F)c1 [compound 218]
[1]
  Test I rating (% disease control): 92%
Septoria nodorum
  Test F rating (% disease control): 0%
Alternaria solani
  Test C rating (% disease control): 0%
[2]
  Test H rating (% disease control): 17%
[3]
  Test J rating (% disease control): 87%
Septoria tritici
  Test G rating (% disease control): 99%
Botrytis cinerea
  Test B rating (% disease control): 94%

## Cc1cccc(Oc2c(-c3c(F)cc(F)cc3F)c(C)nn2C)c1 [compound 219]
[1]
  Test I rating (% disease control): 0%
Septoria nodorum
  Test F rating (% disease control): 0%
Alternaria solani
  Test C rating (% disease control): 0%
[2]
  Test H rating (% disease control): 17%
[3]
  Test J rating (% disease control): 0%
Septoria tritici
  Test G rating (% disease control): 0%
Botrytis cinerea
  Test B rating (% disease control): 70%

## COc1cc(F)c(-c2c(C)nn(C)c2Oc2cccc(C)c2)c(F)c1 [compound 220]
[1]
  Test I rating (% disease control): 99%
Septoria nodorum
  Test F rating (% disease control): 40%
Alternaria solani
  Test C rating (% disease control): 97%
[2]
  Test H rating (% disease control): 40%
[3]
  Test J rating (% disease control): 100%
Septoria tritici
  Test G rating (% disease control): 98%
Botrytis cinerea
  Test B rating (% disease control): 98%

## COc1cccc(Oc2c(-c3c(F)cc(OC)cc3F)c(C)nn2C)c1 [compound 221]
[1]
  Test I rating (% disease control): 99%
Septoria nodorum
  Test F rating (% disease control): 82%
Alternaria solani
  Test C rating (% disease control): 94%
[2]
  Test H rating (% disease control): 17%
[3]
  Test J rating (% disease control): 100%
Septoria tritici
  Test G rating (% disease control): 100%
Botrytis cinerea
  Test B rating (% disease control): 98%

## Cc1nn(C)c(Oc2cccc(C#N)c2)c1-c1c(F)cc(F)cc1F [compound 222]
[1]
  Test I rating (% disease control): 99%
Septoria nodorum
  Test F rating (% disease control): 0%
Alternaria solani
  Test C rating (% disease control): 99%
[2]
  Test H rating (% disease control): 88%
[3]
  Test J rating (% disease control): 100%
Septoria tritici
  Test G rating (% disease control): 100%
Botrytis cinerea
  Test B rating (% disease control): 99%

## COc1cc(F)c(-c2c(C)nn(C)c2Oc2cccc(C#N)c2)c(F)c1 [compound 223]
[1]
  Test I rating (% disease control): 100%
Septoria nodorum
  Test F rating (% disease control): 99%
Alternaria solani
  Test C rating (% disease control): 9%
[2]
  Test H rating (% disease control): 0%
[3]
  Test J rating (% disease control): 100%
Septoria tritici
  Test G rating (% disease control): 100%
Botrytis cinerea
  Test B rating (% disease control): 96%

## Cc1nn(C)c(Oc2ccc(Cl)c(C#N)c2)c1-c1c(F)cc(F)cc1F [compound 224]
[1]
  Test I rating (% disease control): 91%
Septoria nodorum
  Test F rating (% disease control): 0%
Alternaria solani
  Test C rating (% disease control): 51%
[2]
  Test H rating (% disease control): 17%
[3]
  Test J rating (% disease control): 100%
Septoria tritici
  Test G rating (% disease control): 100%
Botrytis cinerea
  Test B rating (% disease control): 99%

## Cc1nn(C)c(Oc2ccc(Br)c(C#N)c2)c1-c1c(F)cc(F)cc1F [compound 225]
[1]
  Test I rating (% disease control): 79%
Septoria nodorum
  Test F rating (% disease control): 0%
Alternaria solani
  Test C rating (% disease control): 0%
[2]
  Test H rating (% disease control): 0%
[3]
  Test J rating (% disease control): 98%
Septoria tritici
  Test G rating (% disease control): 99%
Botrytis cinerea
  Test B rating (% disease control): 65%

## Cc1nn(C)c(Nc2cc(F)ccc2F)c1-c1ccc(F)cc1F [compound 226]
[1]
  Test I rating (% disease control): 91%
Septoria nodorum
  Test F rating (% disease control): 0%
Alternaria solani
  Test C rating (% disease control): 0%
[2]
  Test H rating (% disease control): 28%
[3]
  Test J rating (% disease control): 100%
Septoria tritici
  Test G rating (% disease control): 96%
Botrytis cinerea
  Test B rating (% disease control): 99%

## COc1ccc(Cl)c(Nc2c(-c3ccc(F)cc3F)c(C)nn2C)c1 [compound 227]
[1]
  Test I rating (% disease control): 74%
Septoria nodorum
  Test F rating (% disease control): 0%
Alternaria solani
  Test C rating (% disease control): 0%
[2]
  Test H rating (% disease control): 0%
[3]
  Test J rating (% disease control): 98%
Septoria tritici
  Test G rating (% disease control): 99%
Botrytis cinerea
  Test B rating (% disease control): 87%

## COc1ccc(Nc2c(-c3ccc(F)cc3F)c(C)nn2C)c(F)c1 [compound 228]
[1]
  Test I rating (% disease control): 80%
Septoria nodorum
  Test F rating (% disease control): 0%
Alternaria solani
  Test C rating (% disease control): 99%
[2]
  Test H rating (% disease control): 0%
[3]
  Test J rating (% disease control): 99%
Septoria tritici
  Test G rating (% disease control): 99%
Botrytis cinerea
  Test B rating (% disease control): 99%

## Cc1nn(C)c(Nc2cc(F)c(F)cc2F)c1-c1ccc(F)cc1F [compound 229]
[1]
  Test I rating (% disease control): 91%
Septoria nodorum
  Test F rating (% disease control): 0%
Alternaria solani
  Test C rating (% disease control): 17%
[2]
  Test H rating (% disease control): 0%
[3]
  Test J rating (% disease control): 98%
Septoria tritici
  Test G rating (% disease control): 99%
Botrytis cinerea
  Test B rating (% disease control): 99%

## Cc1nn(C)c(Nc2ccc(F)cc2F)c1-c1ccc(F)cc1F [compound 230]
[1]
  Test I rating (% disease control): 97%
Septoria nodorum
  Test F rating (% disease control): 0%
Alternaria solani
  Test C rating (% disease control): 99%
[2]
  Test H rating (% disease control): 0%
[3]
  Test J rating (% disease control): 100%
Septoria tritici
  Test G rating (% disease control): 100%
Botrytis cinerea
  Test B rating (% disease control): 99%

## Cc1nn(C)c(Nc2cccc(Cl)c2Cl)c1-c1ccc(F)cc1F [compound 231]
[1]
  Test I rating (% disease control): 86%
Septoria nodorum
  Test F rating (% disease control): 0%
Alternaria solani
  Test C rating (% disease control): 34%
[2]
  Test H rating (% disease control): 0%
[3]
  Test J rating (% disease control): 100%
Septoria tritici
  Test G rating (% disease control): 100%
Botrytis cinerea
  Test B rating (% disease control): 98%

## Cc1nn(C)c(Oc2cc(F)c(C#N)cc2F)c1-c1ccc(F)cc1Br [compound 233]
[1]
  Test I rating (% disease control): 100%
Septoria nodorum
  Test F rating (% disease control): 99%
Alternaria solani
  Test C rating (% disease control): 99%
[2]
  Test H rating (% disease control): 0%
[3]
  Test J rating (% disease control): 100%
Septoria tritici
  Test G rating (% disease control): 100%
Botrytis cinerea
  Test B rating (% disease control): 100%

## Cc1nn(C)c(Nc2ccc(F)c(C#N)c2)c1-c1ccc(F)cc1Cl [compound 234]
[1]
  Test I rating (% disease control): 92%
Septoria nodorum
  Test F rating (% disease control): 0%
Alternaria solani
  Test C rating (% disease control): 0%
[2]
  Test H rating (% disease control): 0%
[3]
  Test J rating (% disease control): 84%
Septoria tritici
  Test G rating (% disease control): 99%
Botrytis cinerea
  Test B rating (% disease control): 99%

## Cc1nn(C)c(Nc2cc(C#N)ccc2Cl)c1-c1ccc(F)cc1Cl [compound 235]
[1]
  Test I rating (% disease control): 0%
Septoria nodorum
  Test F rating (% disease control): 0%
Alternaria solani
  Test C rating (% disease control): 0%
[2]
  Test H rating (% disease control): 0%
[3]
  Test J rating (% disease control): 79%
Septoria tritici
  Test G rating (% disease control): 17%
Botrytis cinerea
  Test B rating (% disease control): 84%

## Cc1nn(C)c(Nc2ccc(F)cc2Cl)c1-c1ccccc1C(F)(F)F [compound 236]
[1]
  Test I rating (% disease control): 68%
Septoria nodorum
  Test F rating (% disease control): 0%
Alternaria solani
  Test C rating (% disease control): 0%
[2]
  Test H rating (% disease control): 0%
[3]
  Test J rating (% disease control): 97%
Septoria tritici
  Test G rating (% disease control): 96%
Botrytis cinerea
  Test B rating (% disease control): 97%

## Cc1nn(C)c(Nc2ccc(F)cc2)c1-c1ccccc1C(F)(F)F [compound 237]
[1]
  Test I rating (% disease control): 68%
Septoria nodorum
  Test F rating (% disease control): 0%
Alternaria solani
  Test C rating (% disease control): 0%
[2]
  Test H rating (% disease control): 0%
[3]
  Test J rating (% disease control): 97%
Septoria tritici
  Test G rating (% disease control): 97%
Botrytis cinerea
  Test B rating (% disease control): 99%
